Assay results from US11912706B2, “Crystal forms of a POL1 inhibitor” (PIMERA, INC., priority 2017, dated 2024).
Values after ≈ are worked out from the molar mass of the structure shown. Blank lines part the entries; values can stand above or below the molecule they belong to.

Assays:
Format in all cases: physicochemical
[1] = Gravimetric Vapor Sorption (GVS); conditions: up to 90% relative humidity (RH)
Protocol: Approximately 10-20 mg of sample was placed into a mesh vapor sorption balance pan and loaded into an IGAsorp Moisture Sorption Analyzer balance by Hiden Analytical.
The sample was subjected to a ramping profile from 40% to 90% relative humidity (RH) at 10% increments, maintaining the sample at each step until a stable weight had been achieved (98% step completion). After completion of the sorption cycle, the sample was dried using the same procedure to 0% RH, and finally taken back to the starting point of 40% RH. The weight change during the sorption/desorption cycles was plotted, allowing for the hygroscopic nature of the sample to be determined.

[2] = Rapid solvent solubility screen; conditions: thermodynamic from solid
Protocol: Thirteen solvents were chosen for a rapid solvent solubility screen (See, Table 1). 10 mg of multiphasic Compound (I) prepared according to Example 1 was placed in each of 13 vials and 5 volume aliquots of the appropriate solvent systems were added to each vial.
Between each addition, the mixture was checked for dissolution and if no dissolution was apparent, the mixture was heated to 40° C. and checked again. This procedure was continued until dissolution was observed or until 100 volumes of solvent had been added.

[3] = Further stability studies of Form 1 (2 and 4 weeks; PXRD, NMR, HPLC)
Protocol: 10 mg of Form 1 was weighed out into each of 12 vials. […] vials were placed in each storage condition of: (1) 40° C. with an open cap; (2) 75% RH with an open cap; (3) 50° C. with a closed cap; and (4) room temperature with a closed cap.
Two (2) vials were extracted at each time point of 2 and 4 weeks and PXRD, NMR and HPLC analysis was performed.

[4] = 7 day stability test of crystal forms (PXRD post storage); conditions: 7-day storage
Protocol: 10 mg of Forms 1, 2, 3, 4 and 5 were weighed out into separate vials.
[…] After completion, PXRD analysis was performed on each of these samples.

[5] = Competitive slurrying of Form 1 and Form 5; conditions: dichloromethane, heptane, methanol; ambient, 60° C. or 35° C.; 24 hours
Protocol: Saturated solutions of Compound (I) in multiphasic form were created in two solutions each dichloromethane, heptane and methanol.
10 mg of Form 1 and Form 5 were added to each vial. […] was stirred at ambient conditions for a period of 24 hours, while the other heptane and methanol vials were stirred at 60° C. for 24 hours.
The remaining dichloromethane vial was stirred at 35° C. for 24 hours. The resulting material was analyzed by PXRD, before being dried with a vacuum pump overnight to dry before DSC analysis of samples.

[6] = ambient conditions (closed vial)

hygroscopic nature (GVS) [1]: non-hygroscopic
mass uptake (GVS) [1]: 0.8%
solubility ([2]; acetonitrile, 40 °C, organic solvent or mixture): < 10000 µg/mL
solubility ([2]; dichloromethane, organic solvent or mixture): 200000 µg/mL (≈ 515 mM)
solubility ([2]; dimethylformamide, 40 °C, organic solvent or mixture): < 10000 µg/mL
solubility ([2]; ethanol, 40 °C, organic solvent or mixture): < 10000 µg/mL
solubility ([2]; ethyl acetate, 40 °C, organic solvent or mixture): < 10000 µg/mL
solubility ([2]; heptane, 40 °C, organic solvent or mixture): < 10000 µg/mL
solubility ([2]; majority of the thirteen solvents assessed, 40 °C, organic solvent or mixture, majority of solvents assessed): < 10000 µg/mL
solubility ([2]; methanol, organic solvent or mixture): 12500 µg/mL (≈ 32.2 mM)
solubility ([2]; organic solvent or mixture, Acetone, up to 100 volumes, heated to 40° C. if no dissolution): < 10000 µg/mL
solubility ([2]; propan-2-ol, 40 °C, organic solvent or mixture): < 10000 µg/mL
solubility ([2]; t-butylmethyl ether, 40 °C, organic solvent or mixture): < 10000 µg/mL
solubility ([2]; tetrahydrofuran, 40 °C, organic solvent or mixture): < 10000 µg/mL
solubility ([2]; toluene, 40 °C, organic solvent or mixture): < 10000 µg/mL
solubility ([2]; water, 40 °C): < 10000 µg/mL
Structure (SMILES): CNC(=O)c1cc2ccc(N3CCCN(C)CC3)nc2n2c1nc1ccccc12 [Compound (I), N-methyl-2-(4-methyl-1,4-diazepan-1-yl)benzo[4,5]imidazo[1,2-a][1,8]naphthyridine-6-carbaxomide]

Form stability after storage (PXRD) ([3]; 2 weeks and 4 weeks, 40° C./75% RH, 50° C. and RT): stable and maintains its form
% Purity (HPLC) post stability studies ([3]; 40° C./75% Relative Humidity, 2 weeks): 99.3%
% Purity (HPLC) post stability studies ([3]; 40° C./75% Relative Humidity, 4 weeks): 99.6%
% Purity (HPLC) post stability studies ([3]; 50° C./Ambient % RH, 2 weeks): 99.4%
% Purity (HPLC) post stability studies ([3]; 50° C./Ambient % RH, 4 weeks): 99.7%
% Purity (HPLC) post stability studies ([3]; Room Temperature, 2 weeks): 99.2%
% Purity (HPLC) post stability studies ([3]; Room Temperature, 4 weeks): 99.1%
Form stability after storage (PXRD) ([4]; 40° C./75% RH (closed vial)): stable and maintains its form
Form stability after storage (PXRD) [4, 6]: stable and maintains its form
Structure (SMILES): CNC(=O)c1cc2ccc(N3CCCN(C)CC3)nc2n2c1nc1ccccc12 [Form 1, N-methyl-2-(4-methyl-1,4-diazepan-1-yl)benzo[4,5]imidazo[1,2-a][1,8]naphthyridine-6-carbaxomide]
Structural integrity post stability testing (NMR) ([3]; 2 and 4 weeks, 40° C./75% RH, 50° C., room temperature): maintains its structural integrity and does not degrade

Form stability after storage (PXRD) ([4]; 40° C./75% RH (closed vial)): transitions to Form 1
Form stability after storage (PXRD) [4, 6]: stable and maintains its form
Structure (SMILES): CNC(=O)c1cc2ccc(N3CCCN(C)CC3)nc2n2c1nc1ccccc12 [Form 2, N-methyl-2-(4-methyl-1,4-diazepan-1-yl)benzo[4,5]imidazo[1,2-a][1,8]naphthyridine-6-carbaxomide]

Form stability after storage (PXRD) ([4]; 40° C./75% RH (closed vial)): transitions to Form 1
Form stability after storage (PXRD) [4, 6]: stable and maintains its form
Structure (SMILES): CNC(=O)c1cc2ccc(N3CCCN(C)CC3)nc2n2c1nc1ccccc12 [Form 3, N-methyl-2-(4-methyl-1,4-diazepan-1-yl)benzo[4,5]imidazo[1,2-a][1,8]naphthyridine-6-carbaxomide]

Form stability after storage (PXRD) ([4]; 40° C./75% RH (closed vial)): transitions to Form 1
Form stability after storage (PXRD) [4, 6]: stable and maintains its form
Structure (SMILES): CNC(=O)c1cc2ccc(N3CCCN(C)CC3)nc2n2c1nc1ccccc12 [Form 4, N-methyl-2-(4-methyl-1,4-diazepan-1-yl)benzo[4,5]imidazo[1,2-a][1,8]naphthyridine-6-carbaxomide]

Form stability after storage (PXRD) ([4]; 40° C./75% RH (closed vial)): stable and maintains its form
Form stability after storage (PXRD) [4, 6]: stable and maintains its form
Form transition in competitive slurry (PXRD of damp slurry residue) [5]: transition from Form 5 towards Form 1
Structure (SMILES): CNC(=O)c1cc2ccc(N3CCCN(C)CC3)nc2n2c1nc1ccccc12 [Form 5, N-methyl-2-(4-methyl-1,4-diazepan-1-yl)benzo[4,5]imidazo[1,2-a][1,8]naphthyridine-6-carbaxomide]
